# Source: US20230398130A1, “METHODS AND COMPOSITIONS FOR DIFFERENTIATING STEM CELLS” (Massachusetts Institute of Technology, priority 2020, published 2023)
# Experiments:
# ISC-enriched organoids [1] = assay: Primary screen, 384-well 2.5-D organoid differentiation (ENR+CD, 6 days, Target Selective Inhibitor Library, vs whole-plate median): ATP (CellTiter-Glo 3D, CTG); conditions: for Z.CTG: standard z score of FC
# ISC-enriched organoids [2] = assay: Secondary (validation) screen, 384-well 2.5-D, ENR+CD 6 days, n=8 wells, vs ENR+CD+DMSO control: basal lysozyme secretion (LYZ.NS); format: cell-based, murine
# Method: (§1) Drugs were tested at a narrowed dose range around each treatment's identified optimal dose from the primary screen (4× below, 2× above and below).
# (§2) High-throughput screening.
# (§3) Secondary lysozyme secretion assay screen. Confirmatory secondary screening with primary hits was performed using the above 384-well plate method. The screen was conducted with 4-plate replicates with a base media of ENR+CD. Media was supplemented with compound at day 0 and day 3 (n=8 well replicates per dose) at four different doses: two-fold above, two-fold below, and four-fold below the optimal final dose for each respective treatment. Additionally, each plate carried a large number of ENR+DMSO or ENR+CD+DMSO (vehicle) control wells (n=100 for ATP, and n=25 for LYZ.NS and LYZ.S) for robust normalization. ATP, non-stimulated lysozyme activity and CCh-stimulated lysozyme activity was again measured and the collected data was again processed in a custom R-script, per primary screen with slight modification. Values were log10 transformed, and a plate-wise FC was calculated for each well based on the median value of ENR+CD+DMSO (vehicle) control wells to normalize plate to plate variability.
# ISC-enriched organoids [3] = assay: Secondary (validation) screen, 384-well 2.5-D, ENR+CD 6 days, n=8 wells, vs ENR+CD+DMSO control: ATP (CTG); format: cell-based, murine
# Method: as §1, §2, §3
# ISC-enriched organoids [4] = assay: Secondary (validation) screen, 384-well 2.5-D, ENR+CD 6 days, n=8 wells, vs ENR+CD+DMSO control: carbachol-induced lysozyme secretion (LYZ.S); format: cell-based, murine
# Method: as §1, §2, §3
compound,measurement,setting,value
"COc1cc(Nc2c(C#N)cnc3cc(OCCCN4CCN(C)CC4)c(OC)cc23)c(Cl)cc1Cl [Bosutinib (SKI-606), Bosutinib]",Z.CTG,"ISC-enriched organoids [1]; primary screen, dose 0.08 uM",1.499
same,Z.CTG,"ISC-enriched organoids [1]; primary screen, dose 0.40 uM",0.720
same,Z.CTG,"ISC-enriched organoids [1]; primary screen, dose 2.00 uM",−0.405
same,Z.CTG,"ISC-enriched organoids [1]; primary screen, dose 10.00 uM",−1.595
same,Z.LYZ.NS,ISC-enriched organoids [2]; Dose 0.02 uM,1.061
same,repSSMD.LYZ.NS,ISC-enriched organoids [2]; Dose 0.02 uM,1.620
same,Z.LYZ.NS,ISC-enriched organoids [2]; Dose 0.04 uM,−0.535
same,repSSMD.LYZ.NS,ISC-enriched organoids [2]; Dose 0.04 uM,−0.666
same,Z.LYZ.NS,ISC-enriched organoids [2]; dose 0.08 uM,−0.562
same,repSSMD.LYZ.NS,ISC-enriched organoids [2]; dose 0.08 uM,−0.903
same,Z.CTG,ISC-enriched organoids [3]; Dose 0.02 uM,1.944
same,repSSMD.CTG,ISC-enriched organoids [3]; Dose 0.02 uM,1.251
same,Z.CTG,ISC-enriched organoids [3]; Dose 0.04 uM,1.254
same,repSSMD.CTG,ISC-enriched organoids [3]; Dose 0.04 uM,0.876
same,Z.CTG,ISC-enriched organoids [3]; dose 0.08 uM,0.735
same,repSSMD.CTG,ISC-enriched organoids [3]; dose 0.08 uM,0.584
same,repSSMD.LYZ.S,ISC-enriched organoids [4]; Dose 0.02 uM,1.147
same,Z.LYZ.S,ISC-enriched organoids [4]; Dose 0.04 uM,−0.663
same,repSSMD.LYZ.S,ISC-enriched organoids [4]; Dose 0.04 uM,−0.977
same,Z.LYZ.S,ISC-enriched organoids [4]; dose 0.08 uM,−0.554
same,repSSMD.LYZ.S,ISC-enriched organoids [4]; dose 0.08 uM,−0.892
COc1ccc(C2CNC(=O)C2)cc1OC1CCCC1 (stereo not drawn) [Rolipram],Z.CTG (standard z score),"ISC-enriched organoids [1]; Dose 0.08 uM, primary screen",0.850
same,Z.CTG (standard z score),"ISC-enriched organoids [1]; Dose 0.40 uM, primary screen",0.370
same,Z.CTG (standard z score),"ISC-enriched organoids [1]; Dose 2.00 uM, primary screen",0.945
same,Z.CTG (standard z score),"ISC-enriched organoids [1]; Dose 10.00 uM, primary screen",0.714
same,Z.LYZ.NS,ISC-enriched organoids [2]; Dose 0.50 uM,−0.342
same,repSSMD.LYZ.NS,ISC-enriched organoids [2]; Dose 0.50 uM,−0.478
same,Z.LYZ.NS,ISC-enriched organoids [2]; Dose 1.00 uM,1.213
same,repSSMD.LYZ.NS,ISC-enriched organoids [2]; Dose 1.00 uM,1.715
same,Z.LYZ.NS,ISC-enriched organoids [2]; Dose 4.00 uM,−0.407
same,repSSMD.LYZ.NS,ISC-enriched organoids [2]; Dose 4.00 uM,−0.543
same,Z.LYZ.NS,ISC-enriched organoids [2]; dose 2.00 uM,0.793
same,repSSMD.LYZ.NS,ISC-enriched organoids [2]; dose 2.00 uM,0.950
same,Z.CTG,ISC-enriched organoids [3]; Dose 0.50 uM,0.477
same,repSSMD.CTG,ISC-enriched organoids [3]; Dose 0.50 uM,0.368
same,Z.CTG,ISC-enriched organoids [3]; Dose 1.00 uM,1.198
same,repSSMD.CTG,ISC-enriched organoids [3]; Dose 1.00 uM,0.832
same,Z.CTG,ISC-enriched organoids [3]; Dose 4.00 uM,0.583
same,repSSMD.CTG,ISC-enriched organoids [3]; Dose 4.00 uM,0.447
same,Z.CTG,ISC-enriched organoids [3]; dose 2.00 uM,1.819
same,repSSMD.CTG,ISC-enriched organoids [3]; dose 2.00 uM,1.420
same,Z.LYZ.S,ISC-enriched organoids [4]; Dose 0.50 uM,−0.631
same,repSSMD.LYZ.S,ISC-enriched organoids [4]; Dose 0.50 uM,−0.936
same,Z.LYZ.S,ISC-enriched organoids [4]; Dose 1.00 uM,0.801
same,repSSMD.LYZ.S,ISC-enriched organoids [4]; Dose 1.00 uM,1.107
same,Z.LYZ.S,ISC-enriched organoids [4]; Dose 4.00 uM,−0.543
same,repSSMD.LYZ.S,ISC-enriched organoids [4]; Dose 4.00 uM,−0.736
same,Z.LYZ.S,ISC-enriched organoids [4]; dose 2.00 uM,0.227
same,repSSMD.LYZ.S,ISC-enriched organoids [4]; dose 2.00 uM,0.169
"N#CC[C@H](C1CCCC1)n1cc(-c2ncnc3[nH]ccc23)cn1 [Ruxolitinib (INCB018424), Ruxolitinib]",Z.CTG (standard z score),"ISC-enriched organoids [1]; Dose 0.08 uM, primary screen",1.093
same,Z.CTG (standard z score),"ISC-enriched organoids [1]; Dose 0.40 uM, primary screen",0.867
same,Z.CTG (standard z score),"ISC-enriched organoids [1]; Dose 2.00 uM, primary screen",1.062
same,Z.CTG (standard z score),"ISC-enriched organoids [1]; Dose 10.00 uM, primary screen",1.140
same,Z.LYZ.NS,ISC-enriched organoids [2]; Dose 2.50 uM,−1.251
same,repSSMD.LYZ.NS,ISC-enriched organoids [2]; Dose 2.50 uM,−1.701
same,Z.LYZ.NS,ISC-enriched organoids [2]; Dose 5.00 uM,−1.098
same,repSSMD.LYZ.NS,ISC-enriched organoids [2]; Dose 5.00 uM,−1.569
same,Z.LYZ.NS,ISC-enriched organoids [2]; Dose 20.00 uM,0.522
same,repSSMD.LYZ.NS,ISC-enriched organoids [2]; Dose 20.00 uM,0.930
same,Z.LYZ.NS,ISC-enriched organoids [2]; dose 10.00 uM,−0.671
same,repSSMD.LYZ.NS,ISC-enriched organoids [2]; dose 10.00 uM,−1.103
same,Z.CTG,ISC-enriched organoids [3]; Dose 2.50 uM,−0.128
same,repSSMD.CTG,ISC-enriched organoids [3]; Dose 2.50 uM,−0.090
same,Z.CTG,ISC-enriched organoids [3]; Dose 5.00 uM,−2.016
same,repSSMD.CTG,ISC-enriched organoids [3]; Dose 5.00 uM,−1.168
same,Z.CTG,ISC-enriched organoids [3]; Dose 20.00 uM,1.496
same,repSSMD.CTG,ISC-enriched organoids [3]; Dose 20.00 uM,0.952
same,Z.CTG,ISC-enriched organoids [3]; dose 10.00 uM,−1.380
same,repSSMD.CTG,ISC-enriched organoids [3]; dose 10.00 uM,−1.030
same,Z.LYZ.S,ISC-enriched organoids [4]; Dose 2.50 uM,−1.400
same,repSSMD.LYZ.S,ISC-enriched organoids [4]; Dose 2.50 uM,−1.806
same,Z.LYZ.S,ISC-enriched organoids [4]; Dose 5.00 uM,−1.667
same,repSSMD.LYZ.S,ISC-enriched organoids [4]; Dose 5.00 uM,−2.281
same,Z.LYZ.S,ISC-enriched organoids [4]; Dose 20.00 uM,0.208
same,repSSMD.LYZ.S,ISC-enriched organoids [4]; Dose 20.00 uM,0.382
same,Z.LYZ.S,ISC-enriched organoids [4]; dose 10.00 uM,−1.289
same,repSSMD.LYZ.S,ISC-enriched organoids [4]; dose 10.00 uM,−2.212
CCOc1ccc(Cc2cc([C@@H]3O[C@H](CO)[C@@H](O)[C@H](O)[C@H]3O)ccc2Cl)cc1 [Dapagliflozin],Z.CTG,ISC-enriched organoids [1]; Dose 0.08 uM,0.980
same,Z.CTG,ISC-enriched organoids [1]; Dose 0.40 uM,0.607
same,Z.CTG,ISC-enriched organoids [1]; Dose 2.00 uM,0.699
same,Z.CTG,ISC-enriched organoids [1]; Dose 10.00 uM,0.719
same,Z.LYZ.NS,ISC-enriched organoids [2]; Dose 0.02 uM,0.173
same,repSSMD.LYZ.NS,ISC-enriched organoids [2]; Dose 0.02 uM,0.231
same,Z.LYZ.NS,ISC-enriched organoids [2]; Dose 0.04 uM,1.197
same,repSSMD.LYZ.NS,ISC-enriched organoids [2]; Dose 0.04 uM,1.267
same,Z.LYZ.NS,ISC-enriched organoids [2]; dose 0.08 uM,0.462
same,repSSMD.LYZ.NS,ISC-enriched organoids [2]; dose 0.08 uM,0.537
same,Z.CTG,ISC-enriched organoids [3]; Dose 0.02 uM,0.770
same,repSSMD.CTG,ISC-enriched organoids [3]; Dose 0.02 uM,0.643
same,Z.CTG,ISC-enriched organoids [3]; Dose 0.04 uM,1.569
same,repSSMD.CTG,ISC-enriched organoids [3]; Dose 0.04 uM,0.979
same,Z.CTG,ISC-enriched organoids [3]; dose 0.08 uM,1.346
same,repSSMD.CTG,ISC-enriched organoids [3]; dose 0.08 uM,0.777
same,Z.LYZ.S,ISC-enriched organoids [4]; Dose 0.02 uM,−0.144
same,repSSMD.LYZ.S,ISC-enriched organoids [4]; Dose 0.02 uM,−0.225
same,Z.LYZ.S,ISC-enriched organoids [4]; Dose 0.04 uM,0.528
same,repSSMD.LYZ.S,ISC-enriched organoids [4]; Dose 0.04 uM,0.751
same,Z.LYZ.S,ISC-enriched organoids [4]; dose 0.08 uM,0.530
same,repSSMD.LYZ.S,ISC-enriched organoids [4]; dose 0.08 uM,0.879
